According to patent US20080075796A1, “Compositions and Methods for Controlling Insects” (TyraTech, Inc., priority 2003, published 2008):

Target: T1, Or83b receptor (Drosophila melanogaster, UniProt Q9VNB5)
T1 construct: His (from vector pAc5.1/V5-His B) (C); expressed in transfected cells
T1 sequence (Q9VNB5 1-486): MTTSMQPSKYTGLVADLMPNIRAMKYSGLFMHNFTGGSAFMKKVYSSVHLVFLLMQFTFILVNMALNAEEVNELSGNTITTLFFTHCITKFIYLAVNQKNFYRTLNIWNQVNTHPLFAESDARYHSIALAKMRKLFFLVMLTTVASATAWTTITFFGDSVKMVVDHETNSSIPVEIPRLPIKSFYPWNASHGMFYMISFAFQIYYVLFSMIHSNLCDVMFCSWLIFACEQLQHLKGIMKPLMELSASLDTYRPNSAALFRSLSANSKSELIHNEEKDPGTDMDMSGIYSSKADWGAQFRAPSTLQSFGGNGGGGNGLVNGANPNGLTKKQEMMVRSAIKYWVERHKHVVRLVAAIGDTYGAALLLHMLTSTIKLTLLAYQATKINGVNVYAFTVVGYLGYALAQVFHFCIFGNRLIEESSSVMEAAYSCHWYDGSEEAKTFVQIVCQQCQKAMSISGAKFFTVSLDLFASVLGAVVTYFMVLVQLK
Assay: Saturation binding of ^3H-tyramine to membranes from Schneider cells expressing Or83b receptor
Experimental: To address whether Or83b receptor and Or43a receptor contain a specific binding site for tyramine, membranes expressing Or83b receptor or Or43a receptor are prepared from cells expressing either receptor, as described above, and used for competitive binding with ^3H-tyramine. The binding assay protocol is exactly as described for cells expressing TyrR, as described above.

For `NCCc1ccc(O)cc1` [tyramine], the Kd was ~96.9 nM and the Ki was 96.9 nM.
